According to ChEMBL document CHEMBL1201862, “PubChem BioAssay data set” (2004):
One block for each compound: values may come before it. Calls of active or inactive are those of the source.

Experiments:
[1] = biological target: T1, Oxysterols receptor LXR-beta (Homo sapiens, UniProt P55055); format: functional, cell-based;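 also: agonist activity at LXR measured by a cell-based luminescence readout across a dose range, run as a counterscreen for daf-12 agonists; HEK293 cells with Gal4-LXR fusion and GAL4-driven luciferase reporter; potency for activation of Gal4-LXR reporter so compounds are agonists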
T1 sequence (P55055 whole entry): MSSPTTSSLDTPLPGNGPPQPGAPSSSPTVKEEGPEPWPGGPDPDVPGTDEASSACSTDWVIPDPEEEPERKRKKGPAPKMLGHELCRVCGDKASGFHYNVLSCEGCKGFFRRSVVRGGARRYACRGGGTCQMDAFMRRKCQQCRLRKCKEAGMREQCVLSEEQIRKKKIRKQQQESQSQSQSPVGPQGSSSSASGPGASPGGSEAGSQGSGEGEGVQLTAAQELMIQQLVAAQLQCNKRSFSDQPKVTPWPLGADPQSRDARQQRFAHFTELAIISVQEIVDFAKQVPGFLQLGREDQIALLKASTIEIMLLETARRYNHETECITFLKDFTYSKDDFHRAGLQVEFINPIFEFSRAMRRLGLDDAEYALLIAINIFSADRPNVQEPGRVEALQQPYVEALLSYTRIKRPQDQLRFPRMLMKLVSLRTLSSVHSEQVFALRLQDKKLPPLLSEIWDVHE

[2] = toxicity toward immortalized ovarian surface epithelium – cell-based, plate reader, dry powder samples, cytotoxicity control for PAX8 inhibitor project, dose response (AID 743045); format: functional
[3] = OVCAR8 cell viability loss – plate reader, dry powder samples, PAX8 project, dose response (AID 743197); format: functional, cell-based; conditions: OVCAR-8
[4] = A2780 cell killing – plate reader, dry powder samples, cytotoxicity control, dose response (AID 743046); format: functional, cell-based
Paired box protein Pax-8 = Paired box protein Pax-8 (Homo sapiens, UniProt Q06710); assay: PAX8 transcriptional activity inhibition in RMG-I – RMG-I cells, luciferase, cherry-pick, dose response (AID 687027); format: functional, cell-based;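 also: luciferase reporter driven by Pax8 target thyroperoxidase promoter measured by SteadyGlo luminescence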
[5] = OVCAR-3 cell viability loss – plate reader, dry powder samples, PAX8 inhibitor project, dose response (AID 743044); format: functional, cell-based
[6] = IGROV1 cell killing – plate reader, dry powder samples, PAX8 inhibitor project, dose response (AID 743043); format: functional, cell-based; conditions: IGROV-1
[7] = general cell-killing toxicity readout – plate reader, dry powder samples, cytotoxicity control for PAX8 inhibitor project, dose response (AID 743021); format: functional, cell-based
[8] = T. cruzi growth inhibition in host cells, dose response, cell-based, plate reader, dry powder, set 2 (AID 652275); format: functional
[9] = reduced cellular PGC1a acetyl-lysine signal – cell-based, cherry-picked samples, dose response (AID 720514); format: functional;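 also: potency may reflect raised or lowered acetylation signal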
[10] = biological target: Potassium channel subfamily K member 9 (Homo sapiens, UniProt Q9NPC2); assay: KCNK9 flux blockade, concentration-response – cell-based, FluxOR thallium flux, selectivity assay for TASK1 inhibitor project, SAR follow-up (AID 652211); format: functional;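 also: potency is for inhibitors of the channel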
[11] = biological target: Potassium channel subfamily K member 3 (Homo sapiens, UniProt O14649); assay: inhibition of human KCNK3 channel flux – CHO cells, FluxOR thallium flux, SAR follow-up (AID 652212); format: functional
[12] = Dd2 malaria parasite growth inhibition potency – SYBR Green, dry powder samples, dose response (AID 1159566); format: functional, cell-based;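 also: potency for growth inhibition with lower SYBR green DNA signal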
[13] = growth inhibition of yeast DHODH-expressing 3D7 parasites – SYBR Green, dry powder samples, dose response (AID 1159570); format: functional, cell-based;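 also: parasite growth measured after 72 hours of compound exposure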
[14] = growth inhibition of PfATP4-mutant resistant parasites – NITD609-resistant line, SYBR Green, dry powder, dose response (AID 1159571); format: functional, cell-based;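 also: parasites synchronized at ring stage by sorbitol before testing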
[15] = toxicity to human hepatoma HepG2 cells – cell-based, cherry-picked samples, cytotoxicity control, dose response (AID 1159577); format: functional
[16] = P. falciparum Dd2 growth inhibitors, dose response, SYBR Green, cherry-picked samples (AID 1159567); format: functional, cell-based
[17] = toxicity to human HepG2 hepatoma cells – cell-based, plate reader, dry powder samples, cytotoxicity control, dose response (AID 1159569); format: functional;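 also: inhibitor potency with signal falling toward the positive control level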
[18] = biological target: RNA-editing ligase 1, mitochondrial (Trypanosoma brucei brucei, UniProt P86926); assay: inhibition of trypanosome RNA editing ligase – biochemical, fluorescence, Trypanosoma brucei, dose response (AID 1117295); format: functional
P388 = assay: cells; format: functional; conditions: Mus musculus
[19] = RKO cell viability reduction, dose response, CellTiter-Glo luminescence (AID 1117322); format: functional
[20] = rise of 2N DNA cells, HeLa – IC50, dose response (AID 1117349); format: functional, cell-based
[21] = Reduced DLD-1 viability, concentration-response, CellTiter-Glo luminescence (AID 1117352); format: functional
[22] = HCT116 cell viability decrease, GSK3B pretreatment – CellTiter-Glo, IC50, dose response (AID 1117339); format: functional; conditions: HCT-116
[23] = SNU-C1 cell viability reduction, dose response, CellTiter-Glo luminescence (AID 1117323); format: functional, cell-based
[24] = CellTiter-Glo luminescence survival assay, SW480 colon tumor line, concentration-response curve, half-maximal inhibitory concentration (AID 1117338); format: functional
[25] = cytotoxicity toward Colo320 cells – cell-based, CellTiter-Glo luminescence, IC50, dose response (AID 1117334); format: functional; conditions: COLO 320
[26] = cytotoxicity toward HT-29 cells – cell-based, CellTiter-Glo luminescence, IC50, dose response (AID 1117330); format: functional
P388/ADR = assay: cells; format: functional; conditions: Mus musculus
SN12K1 = assay: cells; format: functional; conditions: Homo sapiens
[27] = rise of 4N DNA cells, HeLa – IC50, dose response (AID 1117351); format: functional, cell-based
[28] = cytotoxicity toward HCT116 cells – cell-based, CellTiter-Glo luminescence, IC50, dose response (AID 1117332); format: functional; conditions: HCT-116

Sequence of Potassium channel subfamily K member 3 (O14649 whole entry): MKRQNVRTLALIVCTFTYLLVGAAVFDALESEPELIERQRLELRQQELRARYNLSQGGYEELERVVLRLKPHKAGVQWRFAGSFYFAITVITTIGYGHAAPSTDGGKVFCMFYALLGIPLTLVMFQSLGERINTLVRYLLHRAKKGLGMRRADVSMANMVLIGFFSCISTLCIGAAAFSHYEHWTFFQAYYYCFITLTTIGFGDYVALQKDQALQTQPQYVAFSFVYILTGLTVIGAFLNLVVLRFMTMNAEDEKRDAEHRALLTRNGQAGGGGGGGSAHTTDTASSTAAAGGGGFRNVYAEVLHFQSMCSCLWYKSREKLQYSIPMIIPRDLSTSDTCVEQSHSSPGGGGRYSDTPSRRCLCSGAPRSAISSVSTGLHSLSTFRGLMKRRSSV
Sequence of Potassium channel subfamily K member 9 (Q9NPC2 whole entry): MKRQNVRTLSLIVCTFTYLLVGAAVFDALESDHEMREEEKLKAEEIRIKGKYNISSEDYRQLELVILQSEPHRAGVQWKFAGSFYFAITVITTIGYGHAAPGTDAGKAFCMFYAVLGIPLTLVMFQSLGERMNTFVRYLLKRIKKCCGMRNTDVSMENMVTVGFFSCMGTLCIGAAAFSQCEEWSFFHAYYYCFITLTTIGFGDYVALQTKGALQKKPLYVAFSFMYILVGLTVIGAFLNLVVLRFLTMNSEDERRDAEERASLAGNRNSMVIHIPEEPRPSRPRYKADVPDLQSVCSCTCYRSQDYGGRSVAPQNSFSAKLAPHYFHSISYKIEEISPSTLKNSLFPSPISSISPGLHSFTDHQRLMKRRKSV
Sequence of Paired box protein Pax-8 (Q06710 whole entry): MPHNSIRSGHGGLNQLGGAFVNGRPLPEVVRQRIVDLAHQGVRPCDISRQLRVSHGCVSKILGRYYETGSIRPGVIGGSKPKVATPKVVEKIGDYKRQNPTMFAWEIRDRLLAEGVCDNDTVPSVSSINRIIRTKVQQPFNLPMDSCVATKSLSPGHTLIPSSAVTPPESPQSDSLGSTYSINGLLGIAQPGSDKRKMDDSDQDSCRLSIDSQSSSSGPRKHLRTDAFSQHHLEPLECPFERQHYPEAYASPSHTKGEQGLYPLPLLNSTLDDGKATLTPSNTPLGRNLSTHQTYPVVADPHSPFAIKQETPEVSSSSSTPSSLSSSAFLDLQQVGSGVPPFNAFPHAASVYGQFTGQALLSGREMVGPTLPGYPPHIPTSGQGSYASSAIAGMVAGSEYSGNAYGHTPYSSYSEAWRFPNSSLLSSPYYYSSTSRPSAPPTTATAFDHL
Sequence of RNA-editing ligase 1, mitochondrial (P86926 whole entry): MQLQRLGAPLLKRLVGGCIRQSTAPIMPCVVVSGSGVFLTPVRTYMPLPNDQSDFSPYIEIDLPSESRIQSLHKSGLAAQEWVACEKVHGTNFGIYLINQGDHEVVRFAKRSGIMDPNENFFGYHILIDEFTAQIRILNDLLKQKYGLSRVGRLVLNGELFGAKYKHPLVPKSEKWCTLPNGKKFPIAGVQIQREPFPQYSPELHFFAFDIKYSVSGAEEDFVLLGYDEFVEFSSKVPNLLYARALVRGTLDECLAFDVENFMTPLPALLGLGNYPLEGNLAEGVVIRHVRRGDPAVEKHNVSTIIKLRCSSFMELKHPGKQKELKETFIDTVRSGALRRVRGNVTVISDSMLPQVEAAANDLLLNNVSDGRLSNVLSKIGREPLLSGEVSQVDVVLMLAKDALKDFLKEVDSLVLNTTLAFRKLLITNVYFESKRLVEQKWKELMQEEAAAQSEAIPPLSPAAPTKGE

EC50 [1]: > 67500 nM (inactive)
Compound: OCCN1CCN(c2cnc(-c3ccsc3)cn2)CC1

Compound: CS(=O)(=O)Nc1ccc2c(c1)[C@@H]1C[C@@H](CC(=O)NCc3ccc(-c4ccccc4)cc3)O[C@@H](CO)[C@@H]1O2
AC50 [2]: 11700 nM (active)
AC50 [3]: 16500 nM (active)
AC50 [4]: 17700 nM (active)
AC50 (Paired box protein Pax-8): 3200 nM (active)
AC50 [5]: 9080 nM (active)
AC50 [6]: 17600 nM (active)
AC50 [7]: 65600 nM (active)

Compound: CC(=O)N1CCCCN2[C@@H](CO)[C@H](c3ccc(-c4cccc(C(=O)N(C)C)c4)cc3)[C@@H]2C1
AC50 [8]: 4940 nM (active)

Compound: CC(C)CC#Cc1ccc2c(c1)O[C@H](CN(C)Cc1ccccc1)[C@@H](C)CN([C@H](C)CO)S2(=O)=O
AC50 [9]: 16400 nM (active)

IC50 [10]: 3060 nM (active)
IC50 [11]: 9 nM (active)
Compound: Cc1cccc(C(=O)Nc2cccc(NC(=O)c3cccc(C(F)(F)F)c3)c2)c1

Compound: COc1ccc2c3c(n(C)c2c1)[C@H](CO)N(Cc1ccc(Cl)cc1)CC31CCN(CC2CC2)CC1
AC50 [12]: 2230 nM (active)
AC50 [13]: 2850 nM (active)
AC50 [14]: 2650 nM (active)
AC50 [15]: > 39000 nM (inactive)
AC50 [16]: 2330 nM (active)
AC50 [17]: 19800 nM (active)

Compound: COc1cccc(CN2CCCCN3[C@H](CO)[C@@H](c4ccc(C#Cc5cccnc5)cc4)[C@H]3C2)c1
AC50 [12]: 560 nM (active)
AC50 [13]: 2040 nM (active)
AC50 [14]: 934 nM (active)
AC50 [15]: 24000 nM (active)
AC50 [16]: 859 nM (active)
AC50 [17]: 14000 nM (active)

IC50 [18]: > 96600 nM (inactive)
Compound: COC(=O)C1=C(C)N(Cc2cccc(C(F)(F)F)c2)C(NCC2CC2)=NC1c1ccccc1C(F)(F)F (centres undefined)

Compound: Nc1nc2[nH]cnc2c(=S)[nH]1 [THIOGUANINE]
GI50 (P388): 76.2 nM (active)
IC50 [19]: 343 nM (active)
IC50 [20]: > 10000 nM (inactive)
IC50 [21]: 108 nM (active)
IC50 [22]: 163 nM (active)
IC50 [23]: 4400 nM (active)
IC50 [24]: 402 nM (active)
IC50 [25]: 373 nM (active)
IC50 [26]: 49.3 nM (active)
GI50 (P388/ADR): 181 nM (active)
GI50 (SN12K1): 281 nM (active)
IC50 [27]: > 10000 nM (inactive)
AC50 [7]: 1990 nM (active)
IC50 [28]: 139 nM (active)
